{"source": "patent US20060189535A1", "about": "“Combination treatment using exendins and thiazolidinediones” (priority 2002, published 2006)", "key": {"male ZDF rat": {"test_system": "male ZDF rat", "assay": "Four weeks combination treatment of overtly diabetic male ZDF rats; HbA1c and 24-hour glucose profiles", "format": "in vivo", "conditions": "thiazolidinedione insulin sensitizer x mg/kg oral once daily + Exendin-4(1-39) xx μg/kg s.c. twice daily", "description": "Synergistic effect of combining thiazolidinedione insulin sensitizer and exendin-4(1-39) on glucose and HbA1c, (glycosylated hemoglobin) in the male ZDF rat.\nMale ZDF rats were used in the study. Before treatment start, measurements of glucose and HbA1c were performed. All animals were overtly diabetic at the beginning of the study. Animals were allocated into the following 4 treatment groups: • Group 1: Vehicle-1+Vehicle-2 • Group 2: thiazolidinedione insulin sensitizer, x mg/kg+Vehicle-2 (n=10) • Group 3: Vehicle-1+exendin-4(1-39), xx μg/kg • Group 4: thiazolidinedione insulin sensitizer, x mg/kg+exendin-4(1-39), xx μtg/kg\nThiazolidinedione insulin sensitizer and Vehicle-1 were administered by oral gavage once daily at approx. 07:30. Exendin-4(1-39) and Vehicle-2 were administered subcutaneously twice daily at approx. 07:30 and 14:30.\nAfter four weeks treatment, HbA1c was measured and 24-hour glucose profiles were assessed.\nThe findings of group 1, 2, 3 and 4 are listed. Delta HbA1c values referring to the numerical difference between the measurement after treatment and the measurement before treatment are calculated. Glucose24 hAUc refers to the total area under the glucose concentration curve during the 24-hour period. A two-way analysis of variance are performed for each parameter and the significance of the interaction term evaluated."}, "dogs": {"test_system": "dogs", "conditions": "injected into dogs; cited from earlier work"}}}
{"substance": "Exendin-4(1-39)", "values": [{"measurement": "effect on 24-hour glucose profiles (Glucose 24h AUC, two-way ANOVA interaction term)", "setting": "male ZDF rat", "result": "synergistic (greater than additive) effects"}, {"measurement": "effect on HbA1c (delta HbA1c, two-way ANOVA interaction term)", "setting": "male ZDF rat", "result": "synergistic (greater than additive) effects"}, {"measurement": "insulin release and blood glucose level", "setting": "dogs", "result": "stimulate insulin release and ensuing lowering of the blood glucose level"}]}
